Key:
[1] = test system: mice; test: Maximal Electroshock Seizure (MES) test, mice i.p.; assay type: in vivo; conditions: for activity in the MES test: mice
[2] = test system: rats; test: MES test, rats p.o.; assay type: in vivo; conditions: at 30 mg/kg
[3] = test system: rats; test: Pilocarpine-induced Status Epilepticus in Rats (prevention; intervention @ 30 min); conditions: Rattus norvegicus
Description: The animal testing was performed using the protocols developed in the Anticonvulsant Screening Program (ASP) at the National Institute of Neurological Disorders and Stroke (NINDS), National Institutes of Health (NIH).

[4] = test system: SMN2 promoter; test: SMN2 promoter β-lactamase reporter assay in NSC34 motor neuron-like cells; assay type: cell-based; conditions: for Promoter (SMN2 promoter test, summary YES/NO): Table 13 summary; for SMN2 promoter activity: treatment for 19 hours at a concentration of 1 μM
Description: FIG. 30 illustrates a screen for SMN2 expression of a number of compounds described herein.
SMN2 promoter activity was measured using NSC34 motor neuron-like cells stably transfected with a β-lactamase (BLA) reporter gene under the control of a 3.4-kilobase fragment of the SMN2 promoter. D156844 was used as a positive control for this assay.

[5] = test system: mice; test: Subcutaneous Metrazol Seizure threshold (s.c. MET) test, mice i.p.; assay type: in vivo; conditions: for activity in the s.c. MET test: mice, at 300 mg/kg
[6] = test system: inclusion of exon 7 in SMN2 mRNAs; test: Exon 7 inclusion BLA reporter assay in NSC34 cell line; assay type: cell-based; conditions: for effect on the inclusion of exon 7 in SMN2 transcripts / exon 7 test, particularly strong hits: NSC34 exon 7 BLA reporter cells; for Exon 7 inclusion (summary YES/NO): Table 13 summary
Source text: To measure changes in the inclusion of exon 7 in SMN2 mRNAs, another NSC34 cell line was used that stably transfected with a reporter construct which expresses BLA when exon 7 is included in the SMN2 minigene mRNAs. 5-(N-ethyl-N-isopropyl)-amiloride (EIPA) was used as a positive control for this assay. Data for tis assay is illustrated in FIG. 30.

[7] = test system: mice; test: Minimal motor impairment (MID50), mice i.p.; conditions: mice i.p.
Description: The animal testing was performed according to methods known in the relevant art.

[8] = test system: mice; test: 6 Hz (minimal clonic seizure) model, mice i.p.; assay type: in vivo; conditions: mice i.p.
[9] = test system: rat dopaminergic N27 cells; test: N27 protection assay against oxidative stress (H2O2 or MPP+; MTT and LDH); assay type: cell-based; conditions: drug 24 hours before 200 μM H2O2 or 640 μM MPP+
Source text: FIGS. 20A-25D data are shown illustrating neuroprotective and neuroregenerative effects observed in rat dopaminergic N27 cells. Rat dopaminergic N27 cells are commonly used in in vitro and in vivo model systems for studying Parkinson's disease. Parkinson's disease is a neurodegenerative disorder of the central nervous system that affects more than 6 million people worldwide. The motor symptoms of Parkinson's disease result from the death of dopamine generating cells in the substantia nigra, a region of the midbrain.
The N27 rat dopaminergic neuron cell line was harvested from E12 rat mesencephalic tissue and was transfected with SV40 to immortalize the cell line. The N27 cell line, when injected into the striata of 6-hydroxydopamine-lesioned rats (an animal model of PD) caused a time-dependent improvement in neurological deficits. This immortalized cell line has been carefully characterized in studies of dopamine biosynthesis, neurotoxicity and used as a dopaminergic neuron model studies.
The N27 in vitro Parkinson's disease model included a test of cell viability and cell toxicity in response to exposure to oxidative stress (e.g., either 200 μM H2O2 or 640 μM MPP+).
Cell viability was tested using the MTT assay. The MTT assay is a colorimetric analysis based on the activities of mitochondrial NAD(P)H-dependent cellular oxidoreductase enzymes. These enzymes are capable of reducing the tetrazolium dye, MTT [3-(4,5-dimethylthiazol-2-yl)-2,5-diphenyltetrazolium] bromide, to an insoluble formazan (purple). […] More viable cells equal more accumulation of the insoluble formazan dye.
Cell toxicity was tested using the […] (LDH) assay. Cells that are stressed secrete LDH. In general, the more cells are stressed, the LDH they secrete into their media. The LDH assay is a reliable colorimetric assay to measure quantitatively the […] (LDH) that is released into the cell culture media from damaged cells as a biomarker for cytotoxicity and cytolysis.
FIGS. 20A-25D present data from two types of assays: protection and recovery assays. In the protection assays, the drug candidate was applied to the cells at various concentrations for 24 hours, followed by the exposure to oxidative stress (either 200 μM H2O2 or 640 μM MPP+) for measuring neuroprotective effect. H2O2 provides a broad measure of oxidative stress, while MPP+ gives a more specific oxidative stress to dopaminergic neurons.
The protection assay results are shown in panels A-C of FIGS. 20-25 In the recovery assays, the cells were first damaged by exposure to H2O2 and then various concentrations of the drug were applied to the cells. The results for the recovery assays are shown the D panels of FIGS. 20-25.

[10] = read-out: Prevention, Protection
[11] = 0.5 h, read-out: Intervention @ 30 min, Protection

CC(CC(N)=O)c1ccc(Cl)cc1 (centres unmarked) [BV, 3-[4-chloro-phenyl]butyramide]
MES, fraction of animals ([1]; mice i.p., 100 mg/kg @ 0.5 hr): 2/3 @ | activity in the MES test ([1]; at 100 mg/kg): activity | activity in the MES test [2]: activity

NC(=O)[C@@H]1C[C@H]1c1ccccc1 (relative stereo) [Compound P, trans-2-phenylcyclopropane-1-carboxamide]
activity in the MES test ([1]; at 300 mg/kg): activity | activity in the MES test [2]: activity | responders at 450 mg/kg [3, 10]: 100%

CC(CC(=O)N1CCCC1)c1ccc(OC(F)(F)F)cc1 (centres unmarked) [BG, 1-Pyrrolidin-1-yl-3-(4-trifluoromethoxy-phenyl)-butan-1-one]
MES, fraction of animals ([1]; mice i.p., 100 mg/kg @ 0.5 hr): 1/3 @ | activity in the MES test ([1]; at 100 mg/kg): activity | activity in the MES test [2]: activity

CC(C)C(CC(N)=O)c1ccc(F)cc1 (centres unmarked) [AQ, 3-(4-Fluoro-phenyl)-4-methyl-pentanoic acid-amide]
SMN2 promoter assay, evidence of activity (may warrant further study) ([4]; NSC34 BLA reporter cells): show evidence of activity | activity in the MES test ([1]; at 100 mg/kg): activity | activity in the MES test [2]: activity | responders at 65 mg/kg [3, 10]: 86% | activity in the s.c. MET test [5]: activity

NC(=O)CC1(c2ccc(Cl)cc2)CCCC1 [AJ]
Promoter (SMN2 promoter test, summary YES/NO) [4]: YES | SMN2 promoter activity [4]: increased SMN2 promoter activity | MES, fraction of animals ([1]; mice i.p., 100 mg/kg @ 0.25 hr): 3/3 | MES, fraction of animals ([1]; mice i.p., 100 mg/kg @ 1.0 hr): 1/3 | s.c. MET, fraction of animals ([5]; mice i.p., 300 mg/kg @ 0.5 hrs): 1/1 @ 0.5 hrs, | effect on the inclusion of exon 7 in SMN2 transcripts [6]: positive effect on the inclusion of exon 7 | exon 7 test, particularly strong hits [6]: Particularly strong hits | Exon 7 inclusion (summary YES/NO) [6]: YES

CC(CC(=O)N(C)C)c1ccc(OC(F)(F)F)cc1 (centres unmarked) [BD, N,N-Dimethyl-3-(4-trifluoromethoxy-phenyl)-butyramide]
MES, fraction of animals ([1]; mice i.p., 100 mg/kg @ 0.5 hr): 1/1 @ | activity in the MES test ([1]; at 100 mg/kg): activity | activity in the s.c. MET test [5]: activity | MID50, fraction of animals ([7]; 100 mg/kg @ 0.5 hr): 4/8 @ 0.5 hrs, | 6 Hz (32 mA), fraction of animals ([8]; 100 mg/kg @ 2.0 hr): 2/4 @ 0.5,

NC(=O)CC1(c2ccc(Cl)cc2)CC1 [AH]
neuroprotective effect against H2O2 and MPP+ oxidative stresses (MTT and LDH assays) [9]: statistically significant, dose-dependent neuroprotection | MES ED50 ([1]; mice i.p., @ 0.25 hr): 69.6 mg/kg | s.c. MET ED50 ([5]; mice i.p., @ 0.25 hr, in mg/kg): 77.98 | MID50 (TD50) ([7]; @ 0.25 hr): 185.73

COc1ccc(C(CC(N)=O)C(C)C)cc1C (centres unmarked) [AS, 3-(4-Methoxy-3-methyl-phenyl)-4-methylpentanoic acid amide]
Promoter (SMN2 promoter test, summary YES/NO) [4]: YES | SMN2 promoter activity [4]: increased SMN2 promoter activity | neuroprotective effect against H2O2 and MPP+ oxidative stresses (MTT and LDH assays) [9]: potent dose-dependent neuroprotective effects | activity in the MES test ([1]; at 100 mg/kg): activity | activity in the MES test [2]: activity | responders at 200 mg/kg [3, 10]: 100%

CC(O)(CC(N)=O)c1cccc(C(F)(F)F)c1 (racemic) [CE]
MES, fraction of animals ([1]; mice i.p., 30 mg/kg @ 0.50 hr): 1/1 @ | s.c. MET, fraction of animals ([5]; mice i.p., 30 mg/kg @ 0.5 hr): 1/5 @ 0.5 hr, | s.c. MET, fraction of animals ([5]; mice i.p., 100 mg/kg @ 0.5 hr): 1/1 @ 0.5 hr, | MID50, fraction of animals ([7]; 100 mg/kg @ 0.5 hr): 3/8 @ 0.5 hr,

CC(O)(CC(N)=O)c1cccc(OC(F)(F)F)c1 (racemic) [CD]
s.c. MET, fraction of animals ([5]; mice i.p., 30 mg/kg @ 0.5 hr): 3/5@ 0.50 | s.c. MET, fraction of animals ([5]; mice i.p., 100 mg/kg @ 0.5 hr): 1/1 @ 0.5, | s.c. MET, fraction of animals ([5]; mice i.p., 100 mg/kg @ 4.0 hr): 1/1 @ 0.5, | MID50, fraction of animals ([7]; 100 mg/kg @ 0.5 hr): 1/8 @ 0.50 hr, | MID50, fraction of animals ([7]; 300 mg/kg @ 0.5 hr): 4/4 @ 0.5 | MID50, fraction of animals ([7]; 300 mg/kg @ 4.0 hr): hr & 2/2

C[C@H](CC(N)=O)c1ccccc1 [Compound C, (R)-3-Phenylbutyramide]
MES, fraction of animals ([1]; mice i.p., 100 mg/kg @ 0.5 hr): 1/6 @0.5 hr, | activity in the MES test ([1]; at 100 mg/kg): activity | MID50, fraction of animals ([7]; 100 mg/kg @ 0.5 hr): 1/8 @0.5 hr

CNC(=O)CC(C)(C)c1ccc(Cl)cc1 [Compound B, 3-(4-Chlorophenyl)-3,N-dimethylbutyramide]
neuroprotective effect against H2O2 and MPP+ oxidative stresses (MTT and LDH assays) [9]: potent dose-dependent neuroprotective effects | responders at 300 mg/kg [3, 10]: 43% | MID50, fraction of animals ([7]; 100 mg/kg @ 0.5 hr): 2/8 @0.5 hr

COc1ccc(C(CC(N)=O)C2CC2)cc1 (centres unmarked) [AM, 3-Cyclopropyl-3-(4-methoxy-phenyl)-propionamide]
SMN2 promoter assay, particularly strong hits ([4]; NSC34 BLA reporter cells): Particularly strong hits | Promoter (SMN2 promoter test, summary YES/NO) [4]: YES | SMN2 promoter activity [4]: increased SMN2 promoter activity | MES, fraction of animals ([1]; mice i.p., 100 mg/kg @ 0.25 hr): 1/3 @ | activity in the MES test ([1]; at 100 mg/kg): activity | activity in the MES test [2]: activity | responders at 400 mg/kg [3, 11]: 38% | responders at 200 mg/kg [3, 10]: 100% | effect on the inclusion of exon 7 in SMN2 transcripts [6]: positive effect on the inclusion of exon 7 | exon 7 test, particularly strong hits [6]: Particularly strong hits | Exon 7 inclusion (summary YES/NO) [6]: YES | 6 Hz (32 mA), fraction of animals ([8]; 100 mg/kg @ 0.25 hr): 1/4 | 6 Hz (32 mA), fraction of animals ([8]; 100 mg/kg @ 0.5 hr): 2/4 | 6 Hz (32 mA), fraction of animals ([8]; 100 mg/kg @ 1.0 hr): 1/4 @

CC(CC(N)=O)c1ccccc1OC(F)(F)F (centres unmarked) [BU, 3-[2-(trifluoromethoxy)-phenyl]butyramide]
SMN2 promoter assay, particularly strong hits ([4]; NSC34 BLA reporter cells): Particularly strong hits | Promoter (SMN2 promoter test, summary YES/NO) [4]: YES | SMN2 promoter activity [4]: increased SMN2 promoter activity | MES, fraction of animals ([1]; mice i.p., 100 mg/kg @ 0.5 hr): 3/3 | MES, fraction of animals ([1]; mice i.p., 100 mg/kg @ 4.0 hr): 2/3 | activity in the MES test ([1]; at 100 mg/kg): activity | responders at 127 mg/kg [3, 11]: 50% | responders at 65 mg/kg [3, 10]: 100% | effect on the inclusion of exon 7 in SMN2 transcripts [6]: positive effect on the inclusion of exon 7 | exon 7 test, particularly strong hits [6]: Particularly strong hits | Exon 7 inclusion (summary YES/NO) [6]: YES | MID50, fraction of animals ([7]; 100 mg/kg @ 0.5 hr): 5/8 @

CC(CC(N)=O)c1ccc2c(c1)OCO2 (centres unmarked) [L, 3-(3,4-methylenedioxy-phenyl)butyramide]
SMN2 promoter activity [4]: increased SMN2 promoter activity | activity in the MES test ([1]; at 300 mg/kg): activity | responders at 600 mg/kg [3, 11]: 29% | responders at 450 mg/kg [3, 10]: 100% | activity in the s.c. MET test [5]: activity | effect on the inclusion of exon 7 in SMN2 transcripts [6]: positive effect on the inclusion of exon 7 | Exon 7 inclusion (summary YES/NO) [6]: YES

— patent publication US12486218B2, “Compounds advantageous in the treatment of central nervous system diseases and disorders” (AurimMed Pharma, Inc., priority 2008, dated 2025)
